≈ marks a conversion by molar mass, not a printed value. Some results are limits rather than exact numbers.

Format in all cases: functional
Holding throughout (details): read-out: ED50 (the source's name)

In one assay the test system is SK-MEL-2. Briefly: Cytotoxicity against human SK-MEL-2 cells by SRB method.
For another assay, the system named is XF498. Description: Cytotoxicity against human XF498 cells by SRB method.
A further assay deals with A549. Description: Cytotoxicity against human A549 cells by SRB method.
The subject of another assay is HCT-15. Briefly: Cytotoxicity against human HCT15 cells by SRB method.
For another assay, the system named is SK-OV-3. Description: Cytotoxicity against human SKOV3 cells by SRB method.

With `C=C[C@@](C)(CC[C@H]1C(C)=CC[C@H]2C(C)(C)CCC[C@]12C)O[C@@H]1O[C@@H](C)[C@@H](OC(C)=O)[C@H](O)[C@H]1O`, the EC50 with SK-MEL-2 was 3.5 µg/mL (≈ 7.31 µM); in the assay on XF498, 3.8 µg/mL (≈ 7.94 µM); with A549, 3.2 µg/mL (≈ 6.69 µM); in the assay on HCT-15, 3.1 µg/mL (≈ 6.48 µM); in the assay with SK-OV-3, 3.4 µg/mL (≈ 7.1 µM).
The corresponding values for `C=C[C@@](C)(CC[C@H]1C(C)=CC[C@H]2C(C)(C)CCC[C@]12C)O[C@@H]1O[C@@H](C)[C@@H](O)[C@H](O)[C@H]1O` are 4.2 µg/mL (≈ 9.62 µM), 8.9 µg/mL (≈ 20.4 µM), 3.9 µg/mL (≈ 8.93 µM), 3.2 µg/mL (≈ 7.33 µM) and 5.7 µg/mL (≈ 13.1 µM).
For `C=C[C@](C)(O)CC[C@H]1C(=C)[C@H](O)C[C@H]2C(C)(C)CCC[C@]12C`, the EC50 in the assay with SK-MEL-2, with XF498, with A549, in the assay on HCT-15 and with SK-OV-3 was more than 5 µg/mL each time.
`C=C[C@@](C)(CC[C@H]1C(C)=CC[C@H]2C(C)(C)CCC[C@]12C)O[C@@H]1O[C@H](C)[C@H](O)[C@H](O)[C@H]1O`: the EC50 amounted to 3.5 µg/mL (≈ 8.02 µM) in the assay with SK-MEL-2; 4.2 µg/mL (≈ 9.62 µM) in the assay on XF498; 3.5 µg/mL (≈ 8.02 µM) with A549; 3.9 µg/mL (≈ 8.93 µM) with HCT-15; 3.6 µg/mL (≈ 8.24 µM) with SK-OV-3.
With `C=C[C@@](C)(CC[C@@H]1[C@@]2(C)CCCC(C)(C)[C@@H]2CC[C@@]1(C)O)O[C@@H]1O[C@H](C)[C@H](O)[C@H](O)[C@H]1O`, the EC50 in the assay on SK-MEL-2, with XF498, with A549, with HCT-15 and in the assay on SK-OV-3 was more than 5 µg/mL throughout.
As for `C=C[C@@](C)(CC[C@H]1C(C)=CC[C@H]2C(C)(C)CCC[C@]12C)O[C@@H]1O[C@H](C)[C@H](O)[C@H](OC(C)=O)[C@H]1O`, the EC50 in the assay on SK-MEL-2 amounted to 3.5 µg/mL (≈ 7.31 µM); with XF498, 5.1 µg/mL (≈ 10.7 µM); with A549 it was 3.6 µg/mL (≈ 7.52 µM); with HCT-15, 3.8 µg/mL (≈ 7.94 µM); in the assay with SK-OV-3, 3.8 µg/mL (≈ 7.94 µM).
Regarding `C=C[C@@](C)(CC[C@@H]1[C@@]2(C)CCCC(C)(C)[C@@H]2CC[C@@]1(C)O)O[C@H]1O[C@H](C)[C@H](O)[C@@H](O)[C@@H]1O`, the EC50 with SK-MEL-2, in the assay with XF498, in the assay with A549, in the assay with HCT-15 and in the assay on SK-OV-3 was more than 5 µg/mL in each case.
Consider `C=C[C@@](C)(O)CC[C@@H]1[C@@]2(C)CCCC(C)(C)[C@@H]2CC[C@@]1(C)O`, for which the EC50 in the assay on SK-MEL-2, in the assay with XF498, in the assay on A549, in the assay with HCT-15 and with SK-OV-3 was more than 5 µg/mL throughout.
Regarding `C=C[C@](C)(O)CC[C@H]1C(C)=CC[C@H]2C(C)(C)CCC[C@]12C`, the EC50 in the assay with SK-MEL-2 is 4.4 µg/mL (≈ 15.1 µM); in the assay with XF498, 9.5 µg/mL (≈ 32.7 µM); in the assay with A549 it was 2.4 µg/mL (≈ 8.26 µM); with HCT-15, 9.1 µg/mL (≈ 31.3 µM); in the assay on SK-OV-3, 8.7 µg/mL (≈ 29.9 µM).
As for `C=C[C@@]1(C)CC[C@H]2[C@]3(C)CCC[C@@](C)(C(=O)O)[C@H]3CC[C@]2(C)O1`, the EC50 in the assay on SK-MEL-2, in the assay on XF498, with A549, with HCT-15 and in the assay on SK-OV-3 was more than 5 µg/mL throughout.
With `C=C[C@@](C)(CC[C@H]1C(C)=CC[C@H]2C(C)(C)CCC[C@]12C)O[C@@H]1O[C@H](C)[C@H](OC(C)=O)[C@H](O)[C@H]1O`, the EC50 with SK-MEL-2 amounted to 3.4 µg/mL (≈ 7.1 µM); with XF498, 8.9 µg/mL (≈ 18.6 µM); in the assay on A549, 3.9 µg/mL (≈ 8.15 µM); in the assay on HCT-15 it was 4.1 µg/mL (≈ 8.57 µM); in the assay with SK-OV-3, 5.8 µg/mL (≈ 12.1 µM).
For `COc1cccc2c1C(=O)c1c(O)c3c(c(O)c1C2=O)C[C@@](O)(C(=O)CO)C[C@@H]3O[C@H]1C[C@H](N)[C@H](O)[C@H](C)O1` [DOXORUBICIN], in that order: 0.003 µg/mL (≈ 0.00552 µM), 0.01 µg/mL (≈ 0.0184 µM), 0.012 µg/mL (≈ 0.0221 µM), 0.35 µg/mL (≈ 0.644 µM) and 0.12 µg/mL (≈ 0.221 µM).
For `COc1cc([C@@H]2c3cc4c(cc3[C@@H](O[C@@H]3O[C@@H]5CO[C@@H](C)O[C@H]5[C@H](O)[C@H]3O)[C@H]3COC(=O)[C@H]23)OCO4)cc(OC)c1O` [ETOPOSIDE], in that order: 0.08 µg/mL (≈ 0.136 µM), 2.6 µg/mL (≈ 4.42 µM), 1.5 µg/mL (≈ 2.55 µM), 2.2 µg/mL (≈ 3.74 µM) and 2.7 µg/mL (≈ 4.59 µM).

The values above are taken from ChEMBL document CHEMBL1151262, “Labdane diterpenes from Aster spathulifolius and their cytotoxic effects on human cancer cell lines” (2005).
